Reference: US8685970B2, “Quinolines and related analogs as sirtuin modulators” (GlaxoSmithKline, LLC, priority 2008, dated 2014)

Target: T1, SIRT1 (Homo sapiens, UniProt Q96EB6)
T1 sequence (Q96EB6 1-747): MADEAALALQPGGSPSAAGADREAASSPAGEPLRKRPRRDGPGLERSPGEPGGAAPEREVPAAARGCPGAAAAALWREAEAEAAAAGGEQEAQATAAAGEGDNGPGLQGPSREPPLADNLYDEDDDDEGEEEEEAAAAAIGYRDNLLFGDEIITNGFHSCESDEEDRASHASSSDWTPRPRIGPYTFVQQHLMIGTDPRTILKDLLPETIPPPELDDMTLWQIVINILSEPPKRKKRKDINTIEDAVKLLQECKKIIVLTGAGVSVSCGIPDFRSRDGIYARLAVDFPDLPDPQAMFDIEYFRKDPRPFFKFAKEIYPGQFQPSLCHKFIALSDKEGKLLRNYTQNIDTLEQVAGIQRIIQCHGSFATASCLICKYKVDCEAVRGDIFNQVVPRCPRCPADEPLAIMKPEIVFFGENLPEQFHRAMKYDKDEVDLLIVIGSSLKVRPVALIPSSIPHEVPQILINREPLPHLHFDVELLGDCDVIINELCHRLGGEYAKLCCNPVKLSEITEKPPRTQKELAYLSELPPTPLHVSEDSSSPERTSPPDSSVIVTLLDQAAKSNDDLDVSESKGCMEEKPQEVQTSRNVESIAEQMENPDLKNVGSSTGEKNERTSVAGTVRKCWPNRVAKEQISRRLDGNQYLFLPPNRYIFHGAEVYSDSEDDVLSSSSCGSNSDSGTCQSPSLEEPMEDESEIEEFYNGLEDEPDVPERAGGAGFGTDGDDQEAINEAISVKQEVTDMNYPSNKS
Experiment: Mass spectrometry based SIRT1 deacetylation assay (activation)
Format: biochemical
Conditions: 10 nM SIRT1, 0.5 μM peptide substrate, 120 μM βNAD+, 25 min at 25° C.
Outline: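 Recombinant N-His-tagged SIRT1 (E. coli BL21(DE3)), 10 nM, incubated 25 min at 25 °C with 0.5 μM biotin/5TMR-labelled acetyl-p53-derived 20-mer peptide and 120 μM βNAD+ in Tris-acetate pH 8 buffer with DTT and BSA. Formic acid stop; MS quantifies acetylated vs deacetylated peptide. EC1.5 = concentration giving 150% activation versus DMSO.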

Row | EC1.5 (concentration of test compound that results in 150% activation of SIRT1) | % Fold Act. (percent maximum fold activation) | Structure (SMILES)
1 | C (EC1.5>25 uM) |  | O=C(Nc1ccc(Cl)cn1)c1cccc2ccc(-c3cccnc3)nc12 [Compound 266]
2 | A (EC1.5<1.0 uM) | A (Fold activation >200%) | O=C(Nc1cccnc1)c1cccc2ccc(-c3cccc(C(F)(F)F)c3)nc12 [Compound 31]
3 | B (EC1.5 1-25 uM) | B (Fold Activation <200%) | O=C(O)c1ccc(NC(=O)c2cccc3ccc(-c4cccc(C(F)(F)F)c4)nc23)o1 [Compound 90]
4 | B (EC1.5 1-25 uM) | A (Fold activation >200%) | Cc1noc(NC(=O)c2cccc3ccc(-c4cccc(C(F)(F)F)c4)nc23)c1C [Compound 82]
5 | A (EC1.5<1.0 uM) | A (Fold activation >200%) | Cc1cnc(NC(=O)c2cccc3ccc(-c4cccc(N5CCOCC5)c4)nc23)s1 [Compound 239]
6 | C (EC1.5>25 uM) |  | Cc1cc(NC(=O)c2cccc3ccc(-c4cccnc4)nc23)sn1 [Compound 236]
7 | C (EC1.5>25 uM) |  | O=C(Nc1cccnc1)c1cc(F)cc2ccc(-c3cccc(C(F)(F)F)c3)nc12 [Compound 63]
8 | C (EC1.5>25 uM) |  | O=C(Nc1nccs1)c1cccc2ncc(-c3ccccc3)nc12 [Compound 116]
9 | A (EC1.5<1.0 uM) | A (Fold activation >200%) | O=C(Nc1cccnc1)Nc1cccc2ccc(-c3cccc(OC(F)(F)F)c3)nc12 [Compound 47]
10 | C (EC1.5>25 uM) |  | FC(F)(F)c1cccc(-c2ccc3cccc(CNC4CCCC4)c3n2)c1 [Compound 143]
11 | A (EC1.5<1.0 uM) | A (Fold activation >200%) | Cn1cnc(C(=O)Nc2cccc3ccc(-c4cccc(C(F)(F)F)c4)nc23)c1 [Compound 221]
12 | B (EC1.5 1-25 uM) | A (Fold activation >200%) | O=C(Nc1cccc2ccc(-c3ccccc3)nc12)c1cscn1 [Compound 2]
13 | A (EC1.5<1.0 uM) | A (Fold activation >200%) | Cc1cncc(-c2ccc3cccc(C(=O)Nc4cccc(CN5CCOCC5)c4)c3n2)c1 [Compound 243]
14 | B (EC1.5 1-25 uM) | A (Fold activation >200%) | O=C(Nc1cccc2ccc(-c3ccccc3F)nc12)c1cscn1 [Compound 75]
15 | B (EC1.5 1-25 uM) | B (Fold Activation <200%) | O=C(Nc1cccnc1)c1cccc2ncc(-c3ccccc3)nc12 [Compound 117]
16 | C (EC1.5>25 uM) |  | FC(F)(F)Oc1cccc(-c2ccc3cccc(NCC4CCCC4)c3n2)c1 [Compound 141]
17 | B (EC1.5 1-25 uM) | B (Fold Activation <200%) | O=C(Nc1ccccn1)c1cccc2ncc(-c3ccccc3)nc12 [Compound 118]
18 | C (EC1.5>25 uM) |  | O=C(Nc1cccc2ccc(-c3cccc(C(F)(F)F)c3)nc12)c1cccc(OCCN2CCOCC2)c1 [Compound 318]
19 | A (EC1.5<1.0 uM) | A (Fold activation >200%) | O=C(Nc1cccc(CN2CCOCC2)n1)c1cccc2ccc(-c3cccc(C(F)(F)F)c3)nc12 [Compound 228]
20 | B (EC1.5 1-25 uM) | A (Fold activation >200%) | O=C(Nc1cc[nH]n1)c1cccc2ccc(-c3cccc(C(F)(F)F)c3)nc12 [Compound 34]
